From patent US12371441B2, “Siderophore cephalosporin conjugates and uses thereof” (ARIVA MED GMBH, priority 2019, dated 2025) come the findings set out here.

As a reminder, the MIC is the least concentration at which growth counts as inhibited. A word on the IC50: it is the concentration that inhibits the measured activity by half.

Experiment [1] deals with Escherichia coli ATCC 25922. Put plainly: MIC by standard broth microdilution (CLSI), Escherichia coli. Type of experiment: cell-based. The protocol: (§1) The in vitro activity against bacteria was determined by standard broth microdilution according to the Clinical and Laboratory Standards Institute CLSI document (Performance Standards for Antimicrobial Susceptibility Testing) M100Ed29E (2019) and (Methods for Dilution Antimicrobial Susceptibility Test for Bacteria That Grow Aerobically) M07Ed11 (2018). The data were obtained using cation-adjusted Mueller Hinton broth medium (CAMHB), and additionally iron-depleted CAMHB medium (ID-CAMHB) for compounds with iron-chelating activity.

The test system of experiment [2] is Burkholderia cepacia CF and non-CF isolates, n = 5. As to the kind of experiment: MIC by standard broth microdilution (CLSI), Burkholderia cepacia isolates. Type of experiment: cell-based. The protocol: as §1
On the technique in general: Broth dilution looks for growth in wells or tubes with falling amounts of substance.

Experiment [3] in a line: Chromeazurol assay (iron-chelating property). Type of experiment: physicochemical. The note with it: absorbance at 630 nm. The method, then:
The iron-chelating property was determined by the chromeazurol assay according to Schwyn B., et al, Universal Chemical Assay for the Detection and Determination of Siderophores, 1987. Analytical Biochemistry 160: 47-56. The assay uses the affinity of chrome azurol S/iron(III)/hexadecyltrimethylamimonium bromide for iron(III). When a strong chelator removes the iron from this dye, its color turns from blue to orange and the absorbance measured at 630 nm is indicative for the chelating properties of a siderophore.

Experiment [4] deals with Klebsiella pneumoniae ATCC 43816. As to the kind of experiment: MIC by standard broth microdilution (CLSI), Klebsiella pneumoniae. In kind it is cell-based. The method, then: as §1
The subject of experiment [5] is Pseudomonas aeruginosa ATCC 27853. Put plainly: MIC by standard broth microdilution (CLSI), Pseudomonas aeruginosa. Type of experiment: cell-based. The protocol:
as §1

The test system of experiment [6] is Acinetobacter baumannii ATCC 15473. As to the kind of experiment: MIC by standard broth microdilution (CLSI), Acinetobacter baumannii. In kind it is cell-based. The protocol: as §1

The structures appear in SMILES notation. Values after ≈ are worked out from the molar mass of the structure shown. Where two headings read alike, the source gives them in different places.

On to `CC(C)(O/N=C(\C(=O)NC1C(=O)N2C(C(=O)O)=C(C=NOCCNC(=O)c3ccc(O)c(O)c3Cl)CSC12)c1nsc(N)n1)C(=O)O` (centres unmarked) [Example 5, 7-[[(2Z)-2-(5-amino-1,2,4-thiadiazol-3-yl)-2-(1-carboxy-1-methyl-ethoxy)imino-acetyl]amino]-3-[2-[(2-chloro-3,4-dihydroxy-benzoyl)amino]ethoxyiminomethyl]-8-oxo-5-thia-1-azabicyclo[4.2.0]oct-2-ene-2-carboxylic acid], for which the MIC in experiment [1] (ATCC25922, EC ATCC 25922, cation-adjusted Mueller Hinton broth (CAMHB), read-out: MIC in CAMHB medium) was 0.25 µg/mL (≈ 0.351 µM); in experiment [1] (ATCC25922, EC ATCC 25922, iron-depleted CAMHB (value in parentheses), read-out: MIC in ID-CAMHB medium), 0.25 µg/mL (≈ 0.351 µM); in experiment [2] (read-out: MIC in CAMHB medium), 0.03 to 0.12 µg/mL (≈ 0.0421 to 0.168 µM); in experiment [2] (read-out: MIC in ID-CAMHB medium) it was 0.03 to 0.12 µg/mL (≈ 0.0421 to 0.168 µM); in experiment [4] (ATCC43816, KP ATCC 43816, cation-adjusted Mueller Hinton broth (CAMHB), read-out: MIC in CAMHB medium), 0.5 µg/mL (≈ 0.701 µM); in experiment [4] (ATCC43816, KP ATCC 43816, iron-depleted CAMHB (value in parentheses), read-out: MIC in ID-CAMHB medium), 1 µg/mL (≈ 1.4 µM). The minimum inhibitory concentration (MIC) in experiment [5] (ATCC27853, PA ATCC 27853, cation-adjusted Mueller Hinton broth (CAMHB), read-out: MIC in CAMHB medium) amounted to 2 µg/mL (≈ 2.8 µM); in experiment [5] (ATCC27853, PA ATCC 27853, iron-depleted CAMHB (value in parentheses), read-out: MIC in ID-CAMHB medium) it was 0.5 µg/mL (≈ 0.701 µM); in experiment [6] (ATCC15473, AB ATCC 15473, cation-adjusted Mueller Hinton broth (CAMHB), read-out: MIC in CAMHB medium), 1 µg/mL (≈ 1.4 µM); in experiment [6] (ATCC15473, AB ATCC 15473, iron-depleted CAMHB (value in parentheses), read-out: MIC in ID-CAMHB medium), 0.5 µg/mL (≈ 0.701 µM). Besides, the midpoint of inhibition in experiment [3], the IC50, lay at 6.41 µM.
